This note sets out measurements from US20090215778A1, “Alpha-substituted Arylmethyl Piperazine Pyrazolo [1,5-alpha]Pyrimidine Amide Derivatives” (priority 2007, published 2009).

The target of experiment [1] is T1, HIV Env six-helix bundle (6HB) structure (Human immunodeficiency virus type 1 group M subtype B, UniProt P04579).
T1 construct: H9 cells chronically infected with HIV-1 (H9/HIV-1RF); endogenous in cells; host or cells: H9 cells chronically infected with HIV-1 strain RF (Env is made from the virus in the infected cells, not by transfection)
The experiment is described as follows: Six-helix bundle (6HB) assay. In kind it is cell-based, HIV-1 (strain RF). Here is the method: 3×10^6H9 cells were incubated with 1 mL of HIV-1 (strain RF) supplemented with 40 μg/mL of DEAE-dextran. Virus and cells were incubated together at 37° C. for 2-4 hours with sporadic shaking to resuspend cells. 10 mL of media (RPMI 1640 containing 10% fetal bovine serum and supplemented with 50 μg/mL gentamicin) was then added and the virus-cell coculture was incubated at 37° C. in a humidified 5% CO2 incubator. 3 days post-infection and every 2-3 days thereafter, the infected H9/HIV-1RF cells were centrifuged, the supernatant was removed, and the cells were resuspended at a density of 0.3×10^6 cells/mL in media (RPMI 1640 containing 10% fetal bovine serum and supplemented with 50 μg/mL gentamicin). Chronically infected H9/HIV-1RF cells were used in experiments starting 12-15 days after infection and up to 40 days post-infection.
This assay determines the effect of compounds on conformational changes in HIV envelope glycoprotein (Env) that are required in order for Env to mediate the fusion of the viral and cellular membranes during virus entry and infection. Specifically, this assay measures the effect of compounds on the formation of the HIV Env six-helix bundle (6HB) structure.
H9 cells chronically infected with HIV-1 (H9/HIV-1RF) were resuspended in Stain/Wash Buffer (1% bovine serum albumin, 0.1% sodium azide in phosphate-buffered saline) and aliquoted at 2.5×10^5 cells per well into 96-well V-bottom plates containing various concentrations of test compounds. Cells and compounds were incubated for 30 minutes at 37° C. Recombinant soluble CD4 (sCD4) was then added to a final concentration of 1 μg/mL. Negative control wells contained no sCD4 and no test compound. Positive control wells contained sCD4 but no test compound. The plate was incubated for 1 hour at 37° C. to allow the sCD4 to bind to HIV Env and induce conformational changes in the Env protein. Antibody that is specific for the HIV Env six-helix bundle conformation was then added (1 μL polyclonal rabbit serum per well), and the plate was incubated for an additional 1 hour at 37° C. to permit antibody binding. The cells were then washed once with Stain/Wash Buffer to remove compound and excess antibody. The cells were resuspended in Stain/Wash Buffer containing PE-labeled anti-rabbit secondary antibody (KPL) at 0.25 μg per well. The cells were incubated for 45 min at 4° C. to permit secondary antibody binding. Fluorescence was detected using a BD FACSArray™ bioanalyzer. Compounds that inhibited Env conformational changes were identified as those that decreased primary antibody binding to the six-helix bundle epitope resulting in a decrease in fluorescence signal.

A further experiment concerns HIV-1, NL4-3 strain. The experiment is described as follows: Virus infection assay (virus entry and single-cycle infection). The conditions noted are these: Human immunodeficiency virus 1, NL43, TZM-b1, read-out: Nl4. Type of experiment: cell-based. On the procedure:
TZM-b1 indicator cells were propagated in Dulbecco's Modified Eagle's Medium (DMEM) containing 10% fetal bovine serum (FBS, heat-inactivated) and supplemented with gentamicin (50 ug/mL).
This assay determines the effects of compounds on virus entry and single-cycle infection of cells. In this assay, virus (HIV-1, NL4-3 strain) is added to indicator cells expressing the CD4 receptor and both the CXCR4 and CCR5 co-receptor. The cells contain both a lac Z and a luciferase reporter gene under control of the viral LTR transcription promoter. The cells and virus are incubated together in the presence of various concentrations of test compounds. Successful infection of the cells by the virus permits activation of the reporter gene by the viral Tat transcription factor. The resulting beta-galactosidase or luciferase activity is quantitated using a chemiluminescent substrate and a luminescent plate reader.
Specifically, one day prior to infection, 1.5×10^4 TZM-b1 indicator cells were added to each well of a 96-well microtiter plate. On the day of the experiment, virus (MOI 0.01) in 50 μL of medium (Dulbecco's Modified Eagle's Medium) supplemented with DEAE-dextran at a final concentration of 80 μg/mL was added to cells along with various concentrations of test compound in 50 μL of Dulbecco's Modified Eagle's Medium. Control wells had virus alone. Following a 4 hr incubation at 37° C., complete media [DMEM supplemented with 10% fetal bovine serum (FBS, heat-inactivated) and gentamicin (50 ug/mL)] was added. One day post-infection the level of virus infection was quantitated by detection of β-galactosidase expression using the Gal-Screen system (Applied Biosystems).

SMILES strings stand for the structures.

T1 sequence (P04579 32-519): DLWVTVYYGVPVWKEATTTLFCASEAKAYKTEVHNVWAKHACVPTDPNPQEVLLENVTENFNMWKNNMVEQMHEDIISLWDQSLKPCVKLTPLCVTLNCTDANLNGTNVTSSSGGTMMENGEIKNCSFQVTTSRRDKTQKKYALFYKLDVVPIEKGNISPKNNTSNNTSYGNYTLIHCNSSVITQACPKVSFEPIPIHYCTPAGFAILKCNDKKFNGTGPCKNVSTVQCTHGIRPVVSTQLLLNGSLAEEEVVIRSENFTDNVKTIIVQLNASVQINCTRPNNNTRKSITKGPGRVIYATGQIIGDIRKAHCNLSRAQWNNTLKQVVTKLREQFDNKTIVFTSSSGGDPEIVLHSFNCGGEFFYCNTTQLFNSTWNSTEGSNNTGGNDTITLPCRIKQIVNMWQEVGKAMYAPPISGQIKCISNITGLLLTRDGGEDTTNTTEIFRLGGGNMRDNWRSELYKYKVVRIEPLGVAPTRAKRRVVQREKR
T1 sequence (P04579 520-865): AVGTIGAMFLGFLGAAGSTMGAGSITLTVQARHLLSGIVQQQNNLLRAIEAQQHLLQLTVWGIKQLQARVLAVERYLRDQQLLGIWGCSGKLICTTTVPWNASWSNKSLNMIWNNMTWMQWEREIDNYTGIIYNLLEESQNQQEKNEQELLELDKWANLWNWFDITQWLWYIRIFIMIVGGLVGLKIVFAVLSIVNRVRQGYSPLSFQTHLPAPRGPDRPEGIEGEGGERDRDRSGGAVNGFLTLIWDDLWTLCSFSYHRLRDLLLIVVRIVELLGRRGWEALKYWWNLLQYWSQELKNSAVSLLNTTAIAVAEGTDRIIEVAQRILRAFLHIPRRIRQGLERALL

Consider `COc1ccc(-c2nc3c(C(=O)N4CCN([C@@H](C)c5cccnc5)C[C@H]4C)cnn3c(C(F)(F)F)c2C)cc1` [methanone, [5-(4-methoxyphenyl)-6-methyl-7-(trifluoromethyl)pyrazolo[1,5-α]pyrimidin-3-yl][(2R)-2-methyl-4-[(1S)-1-(3-pyridinyl)ethyl]-1-piperazinyl]-], for which the IC50 in experiment [1] was under 1000 nM; in the experiment with HIV-1, NL4-3 strain, under 1000 nM.
Turning to `COc1ccc(-c2nc3c(C(=O)N4CCN(C(C(=O)N(C)C)c5ccccc5)C[C@H]4C)cnn3c(C(F)(F)F)c2C)cc1` (stereo partly drawn) [1-piperazineacetamide, 4-[[5-(4-methoxyphenyl)-6-methyl-7-(trifluoromethyl)pyrazolo[1,5-α]pyrimidin-3-yl]carbonyl]-N,N,3-trimethyl-α-phenyl-, (3R)-], the IC50 in experiment [1] is under 1000 nM; in the experiment with HIV-1, NL4-3 strain it was under 1000 nM.
Consider `COc1ccc(-c2nc3c(C(=O)N4CCN(C(CO)c5cc(F)cc(OC)c5)C[C@H]4C)cnn3c(C(F)(F)F)c2C)cc1` (stereo partly drawn) [methanone, [(2R)-4-[1-(3-fluoro-5-methoxyphenyl)-2-hydroxyethyl]-2-methyl-1-piperazinyl][5-(4-methoxyphenyl)-6-methyl-7-(trifluoromethyl)pyrazolo[1,5-α]pyrimidin-3-yl]-], for which the IC50 in experiment [1] is under 1000 nM; in the experiment with HIV-1, NL4-3 strain it was under 1000 nM.
As to `CCc1ccc(-c2nc3c(C(=O)N4CCN([C@@H](CO)c5ccccc5)C[C@H]4C)cnn3c(C(F)(F)F)c2C)cc1` [methanone, [5-(4-ethylphenyl)-6-methyl-7-(trifluoromethyl)pyrazolo[1,5-α]pyrimidin-3-yl][(2R)-4-[(1R)-2-hydroxy-1-phenylethyl]-2-methyl-1-piperazinyl]-], the IC50 in experiment [1] was under 1000 nM; in the experiment on HIV-1, NL4-3 strain, under 1000 nM.
Take `COc1ccc(-c2nc3c(C(=O)N4CCN(C(CO)c5cccc(NC(C)=O)c5)C[C@H]4C)cnn3c(C(F)(F)F)c2C)cc1` (stereo partly drawn) [acetamide, N-[3-[2-hydroxy-1-[(3R)-4-[[5-(4-methoxyphenyl)-6-methyl-7-(trifluoromethyl)pyrazolo[1,5-α]pyrimidin-3-yl]carbonyl]-3-methyl-1-piperazinyl]ethyl]phenyl]-]: the IC50 was under 1000 nM in experiment [1] and under 1000 nM in the experiment on HIV-1, NL4-3 strain.
Consider `COc1ccc(-c2nc3c(C(=O)N4CCN(C(CO)c5cccc(N6CCOCC6)c5)C[C@H]4C)cnn3c(C(F)(F)F)c2C)cc1` (stereo partly drawn) [methanone, [(2R)-4-[2-hydroxy-1-[3-(4-morpholinyl)phenyl]ethyl]-2-methyl-1-piperazinyl][5-(4-methoxyphenyl)-6-methyl-7-(trifluoromethyl)pyrazolo[1,5-α]pyrimidin-3-yl]-], for which the IC50 in experiment [1] was in the range of 1100 to 10000 nM; in the experiment on HIV-1, NL4-3 strain, 1100 to 10000 nM.
With `COc1ccc(-c2nc3c(C(=O)N4CCN(C(CO)c5cccc(Br)c5)C[C@H]4C)cnn3c(C(F)(F)F)c2C)cc1` (stereo partly drawn) [methanone, [(2R)-4-[1-(3-bromophenyl)-2-hydroxyethyl]-2-methyl-1-piperazinyl][5-(4-methoxyphenyl)-6-methyl-7-(trifluoromethyl)pyrazolo[1,5-α]pyrimidin-3-yl]-], the IC50 in experiment [1] is under 1000 nM; with HIV-1, NL4-3 strain, under 1000 nM.
Turning to `COc1ccc(-c2nc3c(C(=O)N4CCN(C(CO)c5ccc(OC)cc5OC)C[C@H]4C)cnn3c(C(F)(F)F)c2C)cc1` (stereo partly drawn) [methanone, [(2R)-4-[1-(2,4-dimethoxyphenyl)-2-hydroxyethyl]-2-methyl-1-piperazinyl][5-(4-methoxyphenyl)-6-methyl-7-(trifluoromethyl)pyrazolo[1,5-α]pyrimidin-3-yl]-], the IC50 was under 1000 nM in experiment [1] and under 1000 nM in the experiment with HIV-1, NL4-3 strain.
Regarding `COc1ccc(-c2nc3c(C(=O)N4CCN([C@H](C)c5ccc(F)cc5)C[C@H]4C)cnn3c(C(F)(F)F)c2C)cc1` [methanone, [(2R)-4-[(1R)-1-(4-fluorophenyl)ethyl]-2-methyl-1-piperazinyl][5-(4-methoxyphenyl)-6-methyl-7-(trifluoromethyl)pyrazolo[1,5-α]pyrimidin-3-yl]-], the IC50 in experiment [1] was under 1000 nM; with HIV-1, NL4-3 strain, under 1000 nM.
Turning to `COc1ccc(-c2nc3c(C(=O)N4CCN([C@H](C)c5ccccc5)C[C@H]4C)cnn3c(C(F)(F)F)c2C)cc1` [methanone, [5-(4-methoxyphenyl)-6-methyl-7-(trifluoromethyl)pyrazolo[1,5-α]pyrimidin-3-yl][(2R)-2-methyl-4-[(1R)-1-phenylethyl]-1-piperazinyl]-], the IC50 in experiment [1] was under 1000 nM; with HIV-1, NL4-3 strain, under 1000 nM.
With `COc1ccc(-c2nc3c(C(=O)N4CCN([C@@H](CO)c5ccccc5)C[C@H]4C)cnn3c(C(F)(F)F)c2OC)cc1` [methanone, [(2R)-4-[(1R)-2-hydroxy-1-phenylethyl]-2-methyl-1-piperazinyl][6-methoxy-5-(4-methoxyphenyl)-7-(trifluoromethyl)pyrazolo[1,5-α]pyrimidin-3-yl]-], the IC50 is under 1000 nM in experiment [1] and under 1000 nM in the experiment on HIV-1, NL4-3 strain.
`COc1ccc(-c2nc3c(C(=O)N4CCN(C(CO)c5cc(F)ccc5F)C[C@H]4C)cnn3c(C(F)(F)F)c2C)cc1` (stereo partly drawn) [methanone, [(2R)-4-[1-(2,5-difluorophenyl)-2-hydroxyethyl]-2-methyl-1-piperazinyl][5-(4-methoxyphenyl)-6-methyl-7-(trifluoromethyl)pyrazolo[1,5-α]pyrimidin-3-yl]-]: the IC50 was under 1000 nM in experiment [1] and under 1000 nM with HIV-1, NL4-3 strain.
For `COc1ccc(-c2nc3c(C(=O)N4CCN(C(CO)c5ccc(F)cc5OC)C[C@H]4C)cnn3c(C(F)(F)F)c2C)cc1` (stereo partly drawn) [methanone, [(2R)-4-[1-(4-fluoro-2-methoxyphenyl)-2-hydroxyethyl]-2-methyl-1-piperazinyl][5-(4-methoxyphenyl)-6-methyl-7-(trifluoromethyl)pyrazolo[1,5-α]pyrimidin-3-yl]-], the IC50 in experiment [1] was under 1000 nM; in the experiment with HIV-1, NL4-3 strain, under 1000 nM.
In the case of `COc1ccc(-c2nc3c(C(=O)N4CCN([C@H](c5ccccc5)C(F)(F)F)C[C@H]4C)cnn3c(C(F)(F)F)c2C)cc1` [methanone, [5-(4-methoxyphenyl)-6-methyl-7-(trifluoromethyl)pyrazolo[1,5-α]pyrimidin-3-yl][(2R)-2-methyl-4-[(1R)-2,2,2-trifluoro-1-phenylethyl]-1-piperazinyl]-], the IC50 in experiment [1] is under 1000 nM; with HIV-1, NL4-3 strain, under 1000 nM.
Take `COc1ccc(-c2nc3c(C(=O)N4CCN(C(CO)c5cccc6c5OC(F)(F)O6)C[C@H]4C)cnn3c(C(F)(F)F)c2C)cc1` (stereo partly drawn) [methanone, [(2R)-4-[1-(2,2-difluoro-1,3-benzodioxol-4-yl)-2-hydroxyethyl]-2-methyl-1-piperazinyl][5-(4-methoxyphenyl)-6-methyl-7-(trifluoromethyl)pyrazolo[1,5-α]pyrimidin-3-yl]-]: the IC50 in experiment [1] was under 1000 nM; in the experiment on HIV-1, NL4-3 strain, under 1000 nM.
For the compound `COc1ccc(-c2nc3c(C(=O)N4CCN([C@@H](C)c5ccc(NC(=O)OC(C)(C)C)cc5)C[C@H]4C)cnn3c(C(F)(F)F)c2C)cc1` [carbamic acid, N-[4-[(1S)-1-[(3R)-4-[[5-(4-methoxyphenyl)-6-methyl-7-(trifluoromethyl)pyrazolo[1,5-α]pyrimidin-3-yl]carbonyl]-3-methyl-1-piperazinyl]ethyl]phenyl]-, 1,1-dimethylethyl ester], the IC50 was over 10100 nM in experiment [1] and under 1000 nM in the experiment on HIV-1, NL4-3 strain.
